SMILES strings stand for the structures.

In one series the target is T1, RPN13 (Homo sapiens, UniProt Q16186).
T1 construct: performed the labeling assay after treating ovarian cancer cell lysates (ES2 and SKOV3) in the presence of titrated doses of RA475; endogenous in cells; host or cells: ES2 and SKOV3 ovarian cancer cell lysates
In words: Up284B competition labelling in ES2 and SKOV3 cell lysate. In kind it is binding. To be noted: titrated RA475, bortezomib 1 μM, Up284B 5 μM. On the procedure: Clarified cell lysate in MPER buffer (Pierce) was pretreated with streptavidin-coated magnetic beads for 45 min at 4°C to deplete non-specific biotinylated proteins in the cell lysate. […] Next, the samples were mixed with Laemmli sample buffer (BioRad) and boiled for 5 min. The proteins were separated using a 4–15% Bio-Rad Mini-PROTEAN SDS-PAGE gel (1 h at 100 V), and transferred to PVDF membrane overnight at 4°C (24 V). The membrane was blocked with 5% (w/v) BSA in phosphate buffered saline containing 0.1% (v/v) Tween 20 (PBST) for 1 h at RT, and washed for 20 min (3X with PBST). Then the membrane was probed with HRP-streptavidin (1:10,000 in PBST) for 1 h at RT, washed for 30 min (3X with PBST), and developed using HyGLO chemiluminescent detection reagent (Denville) and visualized using a Biorad Chemidoc imager.
Fig 2 RA475 binds to RPN13 and induces rapid apoptosis. […] C, D) RA475 competition labelling experiment. C) ES2 D) SKOV3 clarified cell lysate (40 μg/sample) in MPER buffer was pretreated with streptavidin-coated magnetic beads for 45 min at 4°C to deplete non-specific biotinylated proteins in the cell lysate. […] Next, the samples were mixed with Laemmli sample buffer (BioRad) and boiled for 5 min. The proteins were separated using a 4–15% Bio-Rad Mini-PROTEAN SDS-PAGE gel (1 h at 100 V), and transferred to PVDF membrane overnight at 4°C (24 V). […]

For series [1], the system named is high molecular weight polyubiquitinated proteins in OVCAR3 cells. In words: Anti-ubiquitin immunoblot, OVCAR3. In kind it is cell-based, human. The settings on record: Up284 0.5 μM, bortezomib 0.25 μM, ixazomib 0.25 μM, RA475 0.5 or 1 μM. The source says: Cell lysate prepared in MPER (Pierce) from each sample was normalized by total protein concentration using the bicinchoninic acid assay and bovine serum albumin standards. Normalized samples were subjected to SDS-PAGE, transferred to PVDF membranes and analyzed by Western blot using antibodies specific to ubiquitin (P4D1, sc-8017, Santa Cruz), PARP (#9542, […]), actin (#66009, Protein Tech Group), Tubulin(#66031, Protein Tech Group), ADRM1/RPN13 (D9Z1U, #12019, Cell Signaling), USP14 (Cell Signal, # 8159), Annexin V (#559763, BD Pharmingen), and for secondary antibodies we utilized either horseradish peroxidase (HRP)-linked anti-mouse IgG or anti-rabbit IgG (GE Healthcare UK Ltd), HRP-linked streptavidin (N100, Thermo Fisher) at the recommended dilution (1:5000).
Accumulation of high molecular weight polyubiquitinated proteins (polyUb) is a classical phenomenon of proteasome function inhibition due to the stabilization of its substrate.
Fig 3 Impact of RA475 on proteasome function. […] Actin was used as loading control. […] C) 4T1 and HCC1806 cells stably expressing 4UbFL were treated with compounds at indicated doses for 4 h and imaged by IVIS200 after the addition of luciferin substrate (50 μL, 7mg/mL in PBS). D) Sub-confluent cultures of ES2 cells stably expressing 4UbFL were seeded at 10,000 cells/well in 96-well microtiter plates. At 18 h post transfection, cells were treated with compounds or vehicle (DMSO) at the doses indicated. After a 4 h incubation, the cells were lysed and the luciferase activity in each cell lysate was determined with a luciferase assay kit (Promega) according to the manufacturer’s instructions. Bioluminescence was measured by using a luminometer (Glomax Multidetection system, Promega) E) A patch was shaved of hair on one leg of CD-1 mice, and 10 μg 4UbFL plasmid in 20 μL of PBS was injected into the quadriceps femoralis muscle followed immediately by injection of the 2 Needle Array to 5 mm depth encompassing the injection site and square wave electroporation (ElectroSquarePorator 833, BTX-2 Needle array 5mm gap, Harvard apparatus) delivered as eight pulses at 106V for 20 ms with 200 ms intervals. One day post electroporation, mice were anesthetized with isoflurane, injected IP with luciferin (0.3 mg in 100 μL water) and optical imaging was performed to determine basal level luciferase expression. Images were acquired for 10 min with a Xenogen IVIS 200 (Caliper, Hopkinton, MA). Equally sized areas were analyzed using Living Image 2.20 software. Mice were imaged weekly during treatment. […]
(A western blot detects proteins with antibodies after separation by electrophoresis.)

The conditions of series [2]: cited from earlier work.

T1 sequence (Q16186 whole entry): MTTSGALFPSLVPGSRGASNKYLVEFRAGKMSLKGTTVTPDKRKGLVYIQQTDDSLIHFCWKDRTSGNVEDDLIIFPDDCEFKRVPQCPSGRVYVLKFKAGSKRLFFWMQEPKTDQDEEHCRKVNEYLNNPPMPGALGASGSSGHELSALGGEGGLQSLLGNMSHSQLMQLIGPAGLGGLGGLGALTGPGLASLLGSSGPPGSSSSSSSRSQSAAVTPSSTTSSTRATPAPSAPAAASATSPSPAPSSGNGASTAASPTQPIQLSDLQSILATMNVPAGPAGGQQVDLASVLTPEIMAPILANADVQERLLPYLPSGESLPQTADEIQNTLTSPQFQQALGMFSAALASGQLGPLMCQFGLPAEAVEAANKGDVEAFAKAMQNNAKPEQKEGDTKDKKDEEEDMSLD

As to `CC(C)C[C@H](NC(=O)[C@H](Cc1ccccc1)NC(=O)c1cnccn1)B(O)O` [bortezomib], the “competition with Up284B for binding to RPN13” value at RPN13 is recorded as “no impact”. In series [1], the “forms of polyUb induced” value is “only induced the smaller poly Ub forms, typically <250kDa”. Further, the “concentration in human cerebrospinal fluid and murine brain tissue, % of serum concentrations” value in series [2] is recorded as 5–7%.

The values above are taken from PMC11239005, “Preclinical studies of RA475, a guanidine-substituted spirocyclic candidate RPN13/ADRM1 inhibitor for treatment of ovarian cancer” (PLOS ONE, 2024).
